# According to patent US4681970A, “Bicyclo-substituted phenylacetonitrile derivatives” (G. D. Searle & Co., priority 1986, dated 1987):
# Counter-ions that a name gives are not always drawn.
# Experiments:
# [1] = system: spontaneously hypertensive rats (SHR); test: Antihypertensive activity in unanesthetized spontaneously hypertensive rats (SHR); type: in vivo, rat; details: for duration of antihypertensive effect: oral
# Description: The test procedures employed to measure these activities are described below.
# Male, unanesthetized spontaneously hypertensive rats (SHR), 11 to 16 weeks old were used in this test procedure. […]
# Initial mean arterial blood pressure was measured directly via a previously implanted arterial catheter immediately before administration of the test compound. Blood pressure readings were made at hourly intervals, 24 hours per day, for 3 days following oral administration of the test compound and at 5, 10, and 15 minutes following intravenous administration. […] Statistical comparisons were made using the analysis of variance test with two sided probability calculations.
# [2] = target: T1, Isolated thoracic aortic rings from the male SHR (Rattus norvegicus, UniProt P22002); test: Calcium antagonism in vascular smooth muscle (isolated thoracic aortic rings from male SHR); type: cell-based; details: read-out: pA2 Ca^++ Antagonism (converted)
# Description: Isolated thoracic aortic rings from the male SHR were utilized in this test procedure.
# The excised aortic ring was mounted in a tissue bath containing modified Kreb's solution. After depolarization of the tissue with potassium chloride (100 mM), calcium in cumulative concentrations of 1×10^-3 M, 3.2×10^-3 M, and 1×10^-2 M was injected into the bath to produce vascular smooth muscle contraction. The developed tension (in grams) was measured and control dose-response values obtained. After one hour of incubation with a test compound at 1×10^-6 M concentration, the same doses of calcium ions were repeated. The log dose-response curves of the control and after treatment were analyzed by linear regression. The pA2 value was calculated as a measure of calcium antagonism of the test compound. See Van Rossum, J. M., Arch. Int. Pharmacodyn, 143, 299-330, 1963.
# Calcium ions play an essential role in induction and maintenance of vascular smooth muscle contractility. In potassium depolarized vascular smooth muscle, calcium antagonists may block the entry of calcium ions into the cell or act by other mechanisms to inhibit the contractions induced by calcium ions. The inhibition of calcium ion--induced contraction of vascular smooth muscle is used to test compounds for vascular calcium antagonism. Cardiovascular diseases such as arrhythmias, angina-pectoris, hypertension, and peripheral vascular disease may be causally related to abnormalities in cellular handling of calcium ions.
# [3] = system: spontaneously hypertensive rats (SHR); details: clinically useful reference agents; cited from earlier work
# [4] = system: atrial-ventricular conduction; details: compared with verapamil or diltiazem
# anesthetized beagle dogs = test: Antihypertensive effect in anesthetized beagle dogs, i.v.; type: in vivo, beagle dog; details: for maximum hypotensive effect: compounds of the invention, verapamil and diltiazem compared
# [5] = target: T1, Isolated thoracic aortic rings from the male SHR; details: reference drugs, potassium depolarized vascular smooth muscle; cited from earlier work
# [6] = compared with verapamil hydrochloride; cited from earlier work
# [7] = SHR, 10 mg/kg/day for three days
# [8] = conscious SHR, 50 mg/kg/day for three days
# [9] = ratio of the dose required to slow or block atrial-ventricular conduction to the dose required to lower arterial pressure by 20 mmHg
# [10] = ratio of the dose to decrease heart rate to the dose to lower arterial pressure
# T1 sequence (P22002 whole entry): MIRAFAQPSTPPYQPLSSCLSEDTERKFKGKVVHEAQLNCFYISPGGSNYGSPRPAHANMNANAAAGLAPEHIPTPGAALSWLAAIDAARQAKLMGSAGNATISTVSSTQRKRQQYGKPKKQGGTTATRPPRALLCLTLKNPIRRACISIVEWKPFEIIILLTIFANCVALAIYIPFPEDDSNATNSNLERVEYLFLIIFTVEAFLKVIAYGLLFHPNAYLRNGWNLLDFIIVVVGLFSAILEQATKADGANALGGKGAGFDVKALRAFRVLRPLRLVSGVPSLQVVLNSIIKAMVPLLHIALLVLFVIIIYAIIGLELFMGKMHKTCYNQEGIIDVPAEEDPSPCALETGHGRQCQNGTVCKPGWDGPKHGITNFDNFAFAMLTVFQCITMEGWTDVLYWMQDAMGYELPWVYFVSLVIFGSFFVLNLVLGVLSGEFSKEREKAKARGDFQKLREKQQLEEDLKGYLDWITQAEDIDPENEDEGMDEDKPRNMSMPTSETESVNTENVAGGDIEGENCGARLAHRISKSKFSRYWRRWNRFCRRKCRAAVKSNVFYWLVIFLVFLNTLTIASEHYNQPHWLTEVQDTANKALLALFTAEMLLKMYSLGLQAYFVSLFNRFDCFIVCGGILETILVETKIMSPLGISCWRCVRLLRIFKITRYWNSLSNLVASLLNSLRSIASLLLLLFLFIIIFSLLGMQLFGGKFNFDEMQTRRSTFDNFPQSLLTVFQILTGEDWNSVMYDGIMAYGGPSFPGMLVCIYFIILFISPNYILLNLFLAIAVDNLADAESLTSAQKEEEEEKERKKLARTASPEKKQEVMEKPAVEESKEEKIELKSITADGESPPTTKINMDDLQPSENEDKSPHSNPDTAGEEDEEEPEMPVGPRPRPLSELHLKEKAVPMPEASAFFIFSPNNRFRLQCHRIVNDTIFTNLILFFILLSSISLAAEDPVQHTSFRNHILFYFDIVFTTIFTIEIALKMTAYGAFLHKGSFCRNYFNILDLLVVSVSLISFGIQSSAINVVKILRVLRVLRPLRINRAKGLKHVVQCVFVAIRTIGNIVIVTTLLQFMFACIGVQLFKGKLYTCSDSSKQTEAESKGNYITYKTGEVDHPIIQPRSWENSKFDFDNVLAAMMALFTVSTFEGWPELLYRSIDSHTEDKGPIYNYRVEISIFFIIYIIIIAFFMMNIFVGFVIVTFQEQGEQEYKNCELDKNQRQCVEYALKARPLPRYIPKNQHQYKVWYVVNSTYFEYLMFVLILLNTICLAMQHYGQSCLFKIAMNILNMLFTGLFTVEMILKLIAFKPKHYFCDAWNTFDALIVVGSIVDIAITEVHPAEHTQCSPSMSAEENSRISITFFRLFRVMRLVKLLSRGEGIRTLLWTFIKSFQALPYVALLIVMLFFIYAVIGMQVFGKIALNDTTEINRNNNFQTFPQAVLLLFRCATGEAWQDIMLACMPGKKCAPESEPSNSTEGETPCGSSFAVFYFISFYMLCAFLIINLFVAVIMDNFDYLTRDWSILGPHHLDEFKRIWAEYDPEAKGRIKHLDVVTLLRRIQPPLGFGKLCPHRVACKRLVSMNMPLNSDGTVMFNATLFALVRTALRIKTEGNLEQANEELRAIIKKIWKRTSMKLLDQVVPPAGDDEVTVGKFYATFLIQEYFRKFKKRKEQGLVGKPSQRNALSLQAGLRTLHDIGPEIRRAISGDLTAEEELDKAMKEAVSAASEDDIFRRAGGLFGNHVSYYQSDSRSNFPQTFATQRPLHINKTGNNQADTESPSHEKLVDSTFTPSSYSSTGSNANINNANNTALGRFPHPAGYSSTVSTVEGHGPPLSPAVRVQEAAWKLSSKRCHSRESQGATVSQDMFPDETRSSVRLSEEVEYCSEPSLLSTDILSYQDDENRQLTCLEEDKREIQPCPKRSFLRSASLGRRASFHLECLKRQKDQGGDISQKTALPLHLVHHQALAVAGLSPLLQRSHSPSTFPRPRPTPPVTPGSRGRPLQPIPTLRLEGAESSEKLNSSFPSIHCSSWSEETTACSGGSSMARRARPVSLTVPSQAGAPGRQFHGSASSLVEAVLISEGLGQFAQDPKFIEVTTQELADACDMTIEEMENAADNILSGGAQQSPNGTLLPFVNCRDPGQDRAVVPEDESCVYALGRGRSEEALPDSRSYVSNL
# T1 sequence (P54290 25-944 partner limits assumed): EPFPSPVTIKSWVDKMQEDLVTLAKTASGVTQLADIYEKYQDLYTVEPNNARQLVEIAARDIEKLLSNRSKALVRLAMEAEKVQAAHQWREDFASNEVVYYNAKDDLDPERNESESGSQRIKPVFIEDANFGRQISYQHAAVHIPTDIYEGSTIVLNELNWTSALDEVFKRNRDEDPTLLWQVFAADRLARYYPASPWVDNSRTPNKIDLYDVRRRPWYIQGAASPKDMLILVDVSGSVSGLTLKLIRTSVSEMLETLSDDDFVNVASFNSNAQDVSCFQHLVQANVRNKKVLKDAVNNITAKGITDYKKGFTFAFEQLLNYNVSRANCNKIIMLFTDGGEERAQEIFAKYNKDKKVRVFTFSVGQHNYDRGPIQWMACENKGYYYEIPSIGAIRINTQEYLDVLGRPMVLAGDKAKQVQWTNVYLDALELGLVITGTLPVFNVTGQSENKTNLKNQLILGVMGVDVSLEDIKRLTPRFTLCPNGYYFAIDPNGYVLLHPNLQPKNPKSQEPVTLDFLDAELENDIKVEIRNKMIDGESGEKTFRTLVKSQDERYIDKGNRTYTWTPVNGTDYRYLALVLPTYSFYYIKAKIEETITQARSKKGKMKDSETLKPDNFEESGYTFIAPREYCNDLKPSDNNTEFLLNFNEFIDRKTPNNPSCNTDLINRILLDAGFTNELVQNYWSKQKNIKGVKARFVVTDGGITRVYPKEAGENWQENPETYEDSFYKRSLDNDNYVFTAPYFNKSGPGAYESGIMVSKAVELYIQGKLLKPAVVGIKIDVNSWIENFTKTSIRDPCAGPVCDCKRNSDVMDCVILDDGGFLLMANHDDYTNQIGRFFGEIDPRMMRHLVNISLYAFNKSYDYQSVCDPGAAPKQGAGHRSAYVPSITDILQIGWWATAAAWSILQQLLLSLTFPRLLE
# T1 sequence (P54290 945-1091 partner limits assumed): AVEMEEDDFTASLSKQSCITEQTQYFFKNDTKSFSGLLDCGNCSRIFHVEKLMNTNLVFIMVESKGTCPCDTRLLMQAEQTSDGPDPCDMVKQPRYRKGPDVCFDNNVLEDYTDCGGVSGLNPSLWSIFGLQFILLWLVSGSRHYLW
smiles,measurement,setting,value
"COc1ccc2c(c1)CCC(N(C)CCCC(C#N)(c1ccc(OC)c(OC)c1)C(C)C)C2.O=C(O)CC(O)(CC(=O)O)C(=O)O (stereo not drawn) [Example 10, 3,4-dimethoxy-α-(1-methylethyl)-α-[3-[N-methyl-N-(1,2,3,4-tetrahydro-6-methoxy-2-naphthalenyl)amino]propyl]phenylacetonitrile, citrate (1:1)]",SHR -mmHg intravenous (mg/kg),[1]; 3.0 mg/kg,-24 mmHg
same,Kb,[2],25.1 nM
C[C@H](CS)C(=O)N1CCC[C@H]1C(=O)O [Captopril],active in the hypertensive rat assay,[3],active
"COc1ccc(C(C#N)(CCCN(C)C2CCc3ccccc3C2)C(C)C)cc1OC.O=C(O)CC(O)(CC(=O)O)C(=O)O (stereo not drawn) [Example 8, 3,4-dimethoxy-α-(1-methylethyl)-α-[3-[N-methyl-N-(1,2,3,4-tetrahydro-2-naphthalenyl)amino]propyl]phenylacetonitrile, citrate (1:1)]",duration of antihypertensive effect,[1]; [7],approximately 12 hours
same,duration of antihypertensive effect,[1]; [8],> 24 h
same,SHR -mmHg intravenous (mg/kg),[1]; 0.1 mg/kg,-30 mmHg
same,therapeutic ratio for atrial-ventricular block and bradycardia,[4],more favorable therapeutic ratio for atrial-ventricular block and bradycardia than verapamil or diltiazem
same,slope of the dose-blood pressure response curve,anesthetized beagle dogs; compared to verapamil and diltiazem,not as steep
same,selectivity ratio,in vivo; [9],4
same,selectivity ratio,in vivo; [10],3.1
same,Kb,[2],50.1 nM
Clc1cccc(Cl)c1N=C1NCCN1 [Clonidine],active in the hypertensive rat assay,[3],active
NNc1nncc2ccccc12 [Apresoline],active in the hypertensive rat assay,[3],active
"COc1ccc(C(C#N)(CCCN(C)C2CCc3cc(OC)c(OC)cc3C2)C(C)C)cc1OC.O=C(O)CC(O)(CC(=O)O)C(=O)O (stereo not drawn) [Example 9, 3,4-dimethoxy-α-(1-methylethyl)-α-[3-[N-methyl-N-(1,2,3,4-tetrahydro-6,7-dimethoxy-2-naphthalenyl)amino]propyl]phenylacetonitrile, citrate (1:1)]",SHR -mmHg intravenous (mg/kg),[1]; 3.0 mg/kg,-30 mmHg
same,Kb,[2],126 nM
"COc1ccc2c(c1)CC(N(C)CCCC(C#N)(c1ccc(OC)c(OC)c1)C(C)C)CC2.O=C(O)CC(O)(CC(=O)O)C(=O)O (stereo not drawn) [Example 12, 3,4-dimethoxy-α-(1-methylethyl)-α-[3-[N-methyl-N-(1,2,3,4-tetrahydro-7-methoxy-2-naphthalenyl)amino]propyl]phenylacetonitrile, citrate (1:1)]",SHR -mmHg intravenous (mg/kg),[1]; 1.0 mg/kg,-20 mmHg
same,Kb,[2],39.8 nM
"COc1ccc(CCN(C)CCCC(C#N)(c2ccc(OC)c(OC)c2)C(C)C)cc1OC (stereo not drawn) [verapamil, α[3-[[2-(3,4-dimethoxyphenyl)ethyl]methylamino]propyl]-3,4-dimethoxy-α-(1-methylethyl)hydrochloride, reference compound]",duration of antihypertensive effect,[1]; [7],6 h
same,duration of antihypertensive effect,[1]; [8],14 h
same,SHR -mmHg intravenous (mg/kg),[1]; 0.3 mg/kg,-30 mmHg
same,maximum hypotensive effect,anesthetized beagle dogs,approximately the same maximum hypotensive effect
COC(=O)C1=C(C)NC(C)=C(C(=O)OC)C1c1ccccc1[N+](=O)[O-] [nifedipine],active in vascular calcium antagonism test,[5],active
"COc1ccc([C@@H]2Sc3ccccc3N(CCN(C)C)C(=O)[C@@H]2OC(C)=O)cc1 [diltiazem, reference compound]",active in vascular calcium antagonism test,[5],active
same,maximum hypotensive effect,anesthetized beagle dogs,approximately the same maximum hypotensive effect
same,selectivity ratio,in vivo; [9],0.53
same,selectivity ratio,in vivo; [10],0.53
C[C@](N)(Cc1ccc(O)c(O)c1)C(=O)O [Aldomet],active in the hypertensive rat assay,[3],active
"COc1ccc(C(C#N)(CCCN(C)C2CCc3c(cccc3OC)C2)C(C)C)cc1OC.O=C(O)CC(O)(CC(=O)O)C(=O)O (stereo not drawn) [Example 11, 3,4-dimethoxy-α-(1-methylethyl)-α-[3-[N-methyl-N-(1,2,3,4-tetrahydro-5-methoxy-2-naphthalenyl)amino]propyl]phenylacetonitrile, citrate (1:1)]",SHR -mmHg intravenous (mg/kg),[1]; 1.0 mg/kg,-29 mmHg
same,Kb,[2],50.1 nM
"CCCCCCCCCCCCC(C#N)(CCCN(C)CCc1cccc(OC)c1)c1cccc(OC)c1 (stereo not drawn) [Anipamil, 2-(3-methoxyphenyl)-2[3-[N-[2-(3-methoxyphenyl)ethyl]methylamino]propyl]tetradecanenitrile]",calcium ion antagonist activity,[6],calcium ion antagonist activity analogous to verapamil hydrochloride
